We go through 15 compounds from article PMC8770581 (ChemMedChem, 2021).

In data set [1] the target is T1, α-syn fibrils (Homo sapiens, UniProt P37840). Description: α-Synuclein fibril/ligand saturation binding assay. To be noted: for Kd: Kd α-syn, mean ± SD (n = 3); for Selectivity α-syn v/s Aβ: from Kd Aβ and Kd α-syn.
Data set [2] in a line: Absorption/emission maxima and fluorescence quantum yield of free ligand in PBS. It counts as physicochemical. As to conditions: for Absmax / Emmax: free ligand in PBS.
For another data set, the target named is Aβ (1–40) fibrils (Homo sapiens, UniProt P05067). As to the kind of experiment: Aβ fibril/ligand saturation binding assay.
Sequence of Aβ (1–40) fibrils (P05067 672-711): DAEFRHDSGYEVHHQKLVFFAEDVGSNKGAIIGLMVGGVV
The target of another data set is Aβ fibrils (Homo sapiens, UniProt P05067). Description: Fluorescent properties of ligand-Aβ fibril complex. Type of data set: physicochemical.
Sequence of Aβ fibrils (P05067 672-711): as above
For data set [3], the target named is T1, α-syn fibrils. As to the kind of experiment: Fluorescent properties of ligand-α-syn fibril complex. It counts as physicochemical.
Setting [4] is: Table 1, synthetic α-syn fibrils 2.5 μM, 1 hour.
[5] abbreviates: Table 3 and text, α-syn fibrils, saturation binding.

As a reminder, the Kd is the concentration at which binding is half-saturated.

Each structure is given as a SMILES string. A value given as a limit tells only on which side of the number the result lay.

`COc1cc(/C=C/C=C2C(=O)c3ccccc3C2=O)ccc1O` [compound 20, (E)-2-(3-(4-Hydroxy-3-methoxyphenyl)allylidene)-1H-indene-1,3(2H)-dione] yielded a Kd at α-syn fibrils [1] (setting [4]) of 44.5 ± 6.1 nM. Moreover, the Kd at α-syn fibrils [1] (setting [5]) turned out to be 44.5 ± 6.1 nM. Besides, the “Selectivity α-syn v/s Aβ” value at α-syn fibrils [1] was found to be 3.5 x. Moreover, in data set [2], the “Fluorescence quantum yield Free ligand” value is reported as 0.0061, the Absmax amounted to 402 and the Emmax was 572. Binding at Aβ (1–40) fibrils was characterised by a dissociation constant (Kd) of 154 ± 11.8 nM. Further, on Aβ fibrils, the “Absmax Ligand + Aβ” value came to 438, the “Emmax Ligand + Aβ” value was 598 and the “Fluorescence quantum yield Ligand + Aβ” value is 0.1419. Further, at α-syn fibrils [3], the “Absmax Ligand + α-syn” value was 440, the “Emmax Ligand + α-syn” value was found to be 603 and the “Fluorescence quantum yield Ligand + α-syn” value amounted to 0.0482.

As for `O=C(O)c1ccc(-c2ccc(/C=C/C=C3C(=O)c4ccccc4C3=O)cc2)s1` [compound 35, (E)-5-(4-(3-(1,3-Dioxo-1,3-dihydro-2H-inden-2-ylidene)prop-1-en-1-yl)phenyl)thiophene-2-carboxylic acid], at α-syn fibrils [1] (setting [4]), the Kd was 74.2 ± 14.3 nM. The compound further had a Kd on α-syn fibrils [1] (setting [5]) of 74.2 ± 14.3 nM. The “Selectivity α-syn v/s Aβ” value on α-syn fibrils [1] is on record as 4.5 x. In addition, in data set [2], the “Fluorescence quantum yield Free ligand” value is listed as 0.0097, the Absmax is 414 and the Emmax was determined as 556. Also, the Kd on Aβ (1–40) fibrils came to 337 ± 11.7 nM. On Aβ fibrils, the “Absmax Ligand + Aβ” value came to 437, the “Emmax Ligand + Aβ” value is listed as 595 and the “Fluorescence quantum yield Ligand + Aβ” value came to 0.2058. At α-syn fibrils [3], the “Absmax Ligand + α-syn” value turned out to be 425, the “Emmax Ligand + α-syn” value worked out at 601 and the “Fluorescence quantum yield Ligand + α-syn” value was determined as 0.0878.

At α-syn fibrils [1] (setting [4]), `COc1ncc(-c2ccc(/C=C3/Cc4ccccc4C3=O)s2)c(OC)n1` [compound 42, (Z)-2-((5-(2,4-Dimethoxypyrimidin-5-yl)thiophen-2-yl)methylene)-2,3-dihydro-1H-inden-1-one] showed a Kd of 92.9 ± 6.3 nM. The Kd on α-syn fibrils [1] (setting [5]) worked out at 92.9 ± 6.3 nM. Further, the “Selectivity α-syn v/s Aβ” value on α-syn fibrils [1] was 2.7 x. Further, in data set [2], the “Fluorescence quantum yield Free ligand” value is 0.0050, the Absmax was found to be 387 and the Emmax stood at 547. At Aβ (1–40) fibrils, this compound gave a Kd of 250 ± 37.1 nM. At Aβ fibrils, the “Absmax Ligand + Aβ” value is given as 478, the “Emmax Ligand + Aβ” value is on record as 581 and the “Fluorescence quantum yield Ligand + Aβ” value turned out to be 0.1130. At α-syn fibrils [3], the “Absmax Ligand + α-syn” value is 465, the “Emmax Ligand + α-syn” value is reported as 572 and the “Fluorescence quantum yield Ligand + α-syn” value was 0.0596.

Regarding `CN(C)c1ccc(/C=C/C=C2\Cc3ccccc3C2=O)cc1` [compound 9, (E)-2-((E)-3-(4-(Dimethylamino)phenyl)allylidene)-2,3-dihydro-1H-inden-1-one], the Kd on α-syn fibrils [1] (setting [4]) was determined as 38.4 ± 1.3 nM. Besides, the Kd at α-syn fibrils [1] (setting [5]) worked out at 38.4 ± 1.3 nM. At α-syn fibrils [1], the “Selectivity α-syn v/s Aβ” value amounted to 4.1 x. Also, in data set [2], the “Fluorescence quantum yield Free ligand” value is on record as 0.0059, the Absmax is on record as 450 and the Emmax is listed as 589. The compound further had a Kd at Aβ (1–40) fibrils of 157 ± 5 nM. Moreover, at Aβ fibrils, the “Absmax Ligand + Aβ” value was determined as 460, the “Emmax Ligand + Aβ” value came to 609 and the “Fluorescence quantum yield Ligand + Aβ” value is on record as 0.1465. Also, on α-syn fibrils [3], the “Absmax Ligand + α-syn” value is 462, the “Emmax Ligand + α-syn” value came to 610 and the “Fluorescence quantum yield Ligand + α-syn” value came to 0.0805.

For the compound `O=C1/C(=C\c2ccc(-c3ccc(CO)cc3)s2)Cc2ccccc21` [compound 37, (Z)-2-((5-(4-(Hydroxymethyl)phenyl)thiophen-2-yl)methylene)-2,3-dihydro-1H-inden-1-one], in data set [2], the “Fluorescence quantum yield Free ligand” value turned out to be 0.0063, the Absmax came to 431 and the Emmax turned out to be 524. On Aβ (1–40) fibrils, this compound returned a Kd of 393 ± 64.4 nM. Moreover, at Aβ fibrils, the “Absmax Ligand + Aβ” value turned out to be 446, the “Emmax Ligand + Aβ” value was determined as 556 and the “Fluorescence quantum yield Ligand + Aβ” value is listed as 0.1074.

On α-syn fibrils [1] (setting [4]), `COc1cc(/C=C/C=C2\CCc3ccccc3C2=O)ccc1O` [compound 23, (E)-2-((E)-3-(4-Hydroxy-3-methoxyphenyl)allylidene)-3,4-dihydronaphthalen-1(2H)-one] returned a Kd of 85.1 ± 13.4 nM. The Kd on α-syn fibrils [1] (setting [5]) is 85.1 ± 13.4 nM. For the same compound, the “Selectivity α-syn v/s Aβ” value at α-syn fibrils [1] is given as 1.7 x. Moreover, in data set [2], the “Fluorescence quantum yield Free ligand” value is 0.0051, the Absmax is 401 and the Emmax is 549. Moreover, binding on Aβ (1–40) fibrils was characterised by a dissociation constant (Kd) of 144 ± 13 nM. In addition, on Aβ fibrils, the “Absmax Ligand + Aβ” value stood at 454, the “Emmax Ligand + Aβ” value turned out to be 584 and the “Fluorescence quantum yield Ligand + Aβ” value was determined as 0.1890. Further, at α-syn fibrils [3], the “Absmax Ligand + α-syn” value is 447, the “Emmax Ligand + α-syn” value was determined as 587 and the “Fluorescence quantum yield Ligand + α-syn” value was 0.0763.

In turn, `COc1cc(-c2ccc(/C=C/C=C3\Cc4ccccc4C3=O)cc2)ccc1O` [compound 29, (E)-2-((E)-3-(4'-Hydroxy-3'-methoxy-[1,1'-biphenyl]-4-yl)allylidene)-2,3-dihydro-1H-inden-1-one] yielded a Kd at α-syn fibrils [1] (setting [4]) of 66.7 ± 2 nM. Further, the “Selectivity α-syn v/s Aβ” value at α-syn fibrils [1] came out at 0.8 x. Besides, in data set [2], the “Fluorescence quantum yield Free ligand” value turned out to be 0.0052, the Absmax came out at 397 and the Emmax was found to be 551. The compound further yielded a dissociation constant Kd at Aβ (1–40) fibrils of 52.5 ± 3.1 nM. Also, at Aβ fibrils, the “Absmax Ligand + Aβ” value came to 424, the “Emmax Ligand + Aβ” value came out at 574 and the “Fluorescence quantum yield Ligand + Aβ” value is 0.1543. Moreover, on α-syn fibrils [3], the “Absmax Ligand + α-syn” value is listed as 428, the “Emmax Ligand + α-syn” value is on record as 583 and the “Fluorescence quantum yield Ligand + α-syn” value was determined as 0.0766.

`COc1cc(/C=C/C=C2\Cc3cc(F)cc(F)c3C2=O)ccc1O` [compound 14, (E)-5,7-Difluoro-2-((E)-3-(4-hydroxy-3-methoxyphenyl)allylidene)-2,3-dihydro-1H-inden-1-one] displayed a Kd at α-syn fibrils [1] (setting [4]) of 241 ± 47.9 nM. In addition, in data set [2], the Absmax stood at 338 and the Emmax came to 545.

Turning to `O=C1C(=CC2=C(Cl)c3ccccc3CC2)C(=O)c2ccccc21` [compound 52, 2-((1-Chloro-3,4-dihydronaphthalen-2-yl)methylene)-1H-indene-1,3(2H)-dione], on α-syn fibrils [1] (setting [4]), the Kd is more than 2000 nM. For the same compound, in data set [2], the Absmax is given as 354 and the Emmax is 406.

Consider `O=C1C(=C/C=C/c2ccc(F)cc2)C(=O)c2ccccc21` [compound 18, (E)-2-(3-(4-Fluorophenyl)allylidene)-1H-indene-1,3(2H)-dione], for which, at α-syn fibrils [1] (setting [4]), the Kd was more than 2000 nM. In data set [2], this compound registered an Absmax of 332 and an Emmax of 421.

`CN(C)c1ccc(-c2ccc(/C=C3/Cc4ccccc4C3=O)s2)cc1` [compound 40, (Z)-2-((5-(4-(Dimethylamino)phenyl)thiophen-2-yl)methylene)-2,3-dihydro-1H-inden-1-one]: binding at α-syn fibrils [1] (setting [4]) was put at a Kd of 160 ± 7.1 nM. In data set [2], this compound registered an Absmax of 413 and an Emmax of 597.

In turn, `O=C1/C(=C/C=C/c2ccc([N+](=O)[O-])cc2)Cc2ccc(O)cc21` [compound 13, (E)-6-Hydroxy-2-((E)-3-(4-nitrophenyl)allylidene)-2,3-dihydro-1H-inden-1-one] had a Kd on α-syn fibrils [1] (setting [4]) of 726 ± 23.6 nM. In data set [2], this compound displayed an Absmax of 356 and an Emmax of 443.

Compound `COc1cc(/C=C/C=C2C(=O)c3ccccc3C2=O)cc(OC)c1O` [compound 21, (E)-2-(3-(4-Hydroxy-3,5-dimethoxyphenyl)allylidene)-1H-indene-1,3(2H)-dione] registered a Kd at α-syn fibrils [1] (setting [4]) of 268 ± 11.7 nM. Moreover, in data set [2], the Absmax is recorded as 434 and the Emmax was 450.

For the compound `CN(C)c1ccc(/C=C/C=C2\CCc3ccccc3C2=O)cc1` [compound 24, (E)-2-((E)-3-(4-(Dimethylamino)phenyl)allylidene)-3,4-dihydronaphthalen-1(2H)-one], at α-syn fibrils [1] (setting [4]), the affinity, expressed as Kd, was 97.6 ± 5.7 nM. Besides, the dissociation constant (Kd) at α-syn fibrils [1] (setting [5]) was 97.6 ± 5.7 nM. In addition, the “Selectivity α-syn v/s Aβ” value on α-syn fibrils [1] is recorded as 1.7 x. Besides, in data set [2], the “Fluorescence quantum yield Free ligand” value is 0.0063, the Absmax was found to be 397 and the Emmax came out at 565. This compound gave a Kd on Aβ (1–40) fibrils of 165 ± 7.1 nM. Also, on Aβ fibrils, the “Absmax Ligand + Aβ” value is 435, the “Emmax Ligand + Aβ” value was 585 and the “Fluorescence quantum yield Ligand + Aβ” value is recorded as 0.1377. On α-syn fibrils [3], the “Absmax Ligand + α-syn” value was 452, the “Emmax Ligand + α-syn” value was determined as 582 and the “Fluorescence quantum yield Ligand + α-syn” value came to 0.0668.

On α-syn fibrils [1] (setting [4]), `COc1cc(-c2ccc(/C=C3/Cc4ccccc4C3=O)s2)ccc1O` [compound 39, (Z)-2-((5-(4-Hydroxy-3-methoxyphenyl)thiophen-2-yl)methylene)-2,3-dihydro-1H-inden-1-one] registered a Kd of 93.1 ± 13.8 nM. This compound showed a Kd on α-syn fibrils [1] (setting [5]) of 93.1 ± 13.8 nM. For the same compound, the “Selectivity α-syn v/s Aβ” value on α-syn fibrils [1] was 2.8 x. Further, in data set [2], the “Fluorescence quantum yield Free ligand” value is given as 0.0031, the Absmax turned out to be 403 and the Emmax is 575. The Kd on Aβ (1–40) fibrils turned out to be 257 ± 20.3 nM. Also, on Aβ fibrils, the “Absmax Ligand + Aβ” value is given as 448, the “Emmax Ligand + Aβ” value is given as 586 and the “Fluorescence quantum yield Ligand + Aβ” value amounted to 0.1377. Moreover, on α-syn fibrils [3], the “Absmax Ligand + α-syn” value is 439, the “Emmax Ligand + α-syn” value was 589 and the “Fluorescence quantum yield Ligand + α-syn” value was 0.0435.
